Source: PubChem BioAssay (NCI)
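Grown in 96-well plates, cells were treated for 48 hours with each compound at five concentrations. Insufficient inhibition: endpoint recorded as highest concentration tested. GI50 marks 50% less growth. Definition used: TGI = concentration required for complete inhibition of growth.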

Key:
Assay in all cases: NCI-60 cell line screen, 48 h
UACC-62 melanoma = system: UACC-62 melanoma
PC-3 prostate = system: PC-3 prostate
SNB-75 CNS = system: SNB-75 CNS
SK-MEL-2 melanoma = system: SK-MEL-2 melanoma
MDA-MB-435 = system: MDA-MB-435
CAKI-1 renal = system: CAKI-1 renal
A498 renal = system: A498 renal
CCRF-CEM leukemia = system: CCRF-CEM leukemia

Structure (SMILES) | GI50 (UACC-62 melanoma) | TGI (UACC-62 melanoma) | GI50 (PC-3 prostate) | TGI (PC-3 prostate) | GI50 (SNB-75 CNS) | TGI (SNB-75 CNS) | GI50 (SK-MEL-2 melanoma) | TGI (SK-MEL-2 melanoma) | GI50 (MDA-MB-435) | TGI (MDA-MB-435) | GI50 (CAKI-1 renal) | TGI (CAKI-1 renal) | GI50 (A498 renal) | TGI (A498 renal) | GI50 (CCRF-CEM leukemia) | TGI (CCRF-CEM leukemia)
Cc1ccc(S(=O)(=O)NC(CCCCN)C(=O)CCl)cc1 (stereo not given) | 58300 nM | > 100 µM | 52600 nM | > 100 µM | > 100 µM | > 100 µM | 67500 nM | > 100 µM | 22200 nM | 67.9 µM | 37800 nM | > 100 µM |  |  |  | 
CCCCCCCCCCCCOC1C(C(COC2OC(C(O)CO)C3OC(C)(C)OC23)OC(=O)Nc2ccc([N+](=O)[O-])cc2)OC2OC(C)(C)OC21 (stereo not given) | 2060 nM | 4.61 µM | 2420 nM | 5.63 µM | 3.64 µM | 16.1 µM | 2090 nM | 5.09 µM | 1840 nM | 3.68 µM | 2550 nM | 7.28 µM | 2630 nM | 6.09 µM |  | 
O=C(/C=C/CN1CCCCC1)Nc1cc2c(Nc3ccc(F)c(Cl)c3F)ncnc2cc1OCCOC(F)F | 1630 nM | 5.11 µM | 1680 nM | 8.43 µM | 0.265 µM | 4.81 µM | 1850 nM | 4.7 µM | 1350 nM | 5.81 µM | < 15.1 nM | 1.44 µM | 299 nM | 2.02 µM | 2420 nM | 10.7 µM
CC(C)(O)C1CC(=O)C(C)(C2C(O)CC3(C)C4CC=C5C(CCC(O)C5(C)C)C4(C)C(=O)CC23C)O1 (stereo not given) |  | > 100 µM |  | > 100 µM |  | > 100 µM |  | > 100 µM |  | > 100 µM |  | > 100 µM |  | > 100 µM |  | 
Cc1cccc(NC(=O)c2sc3nc4c(cc3c2N)CCC4)c1C | 267 nM | 21 µM | 369 nM | 15.7 µM | 0.189 µM | 0.815 µM | 310 nM | 17.9 µM | 51.9 nM | 0.284 µM | 332 nM | 56.7 µM | 262 nM | 0.938 µM | 321 nM | 35.8 µM
C=C1C(=O)O[C@H]2[C@H]1CC/C(Cn1cc(CNC(=O)c3cc4ccccc4[nH]3)nn1)=C\CC[C@@]1(C)O[C@@H]21 | 1570 nM | 3.33 µM | 1880 nM | 4.79 µM | 10.4 µM | 22.4 µM | 6430 nM | 23 µM | 2820 nM | 9.7 µM | 2260 nM | 12.2 µM | 18900 nM | 36 µM | 527 nM | 5.21 µM
Cn1cc(C2=C(c3cn(CCCSC(=N)N)c4ccccc34)C(=O)NC2=O)c2ccccc21 | 2540 nM | 5.7 µM | 3380 nM | 11.1 µM | 0.674 µM | 4.33 µM | 1530 nM | 5.2 µM | 1810 nM | 5.59 µM | 7680 nM | 23.4 µM | 5000 nM | 12 µM | 971 nM | 3.93 µM
Oc1ccc(-c2nc(-c3ccc4oc5ccc(-c6[nH]c(-c7ccc(O)cc7)nc6-c6ccccc6)cc5c4c3)c(-c3ccccc3)[nH]2)cc1 | 14700 nM | 46.8 µM | 2930 nM | 13.5 µM | 8.69 µM | 67.6 µM |  |  | 2850 nM | > 100 µM | 13700 nM | 41.7 µM | 12200 nM | 26 µM |  | 
Cn1c([N+](=O)[O-])cnc1/C=C1\Oc2ccc(Cl)cc2C1=O | 1240 nM | 3.27 µM | 1120 nM | 7.1 µM | 0.63 µM | 2.27 µM | 901 nM | 3.04 µM | 354 nM | 1.95 µM | 257 nM | 0.754 µM | 1890 nM | 5.07 µM | 199 nM | 0.823 µM
COc1ccc(/C=C2\CN(Cc3cn(CCCNc4ccnc5cc(Cl)ccc45)nn3)C/C(=C\c3ccc(OC)cc3)C2=O)cc1 | 16300 nM | 32.1 µM | 2900 nM | 17 µM | 3.89 µM | 19.7 µM | 9850 nM | 39.6 µM | 1600 nM | 3.02 µM |  |  | 2200 nM | 32.8 µM | 2390 nM | 7.01 µM
Oc1c(Br)cc(Br)c2cccnc12 | 2160 nM | 7.37 µM | 4500 nM | > 100 µM | 10.7 µM | > 100 µM |  |  | 3620 nM | > 100 µM | 2290 nM | 6.79 µM | 2030 nM | 11.5 µM | 2630 nM | 8.83 µM
COc1cc(OC)c(-c2oc3ccccc3c(=O)c2O)c(OC)c1 |  | > 100 µM |  | > 100 µM |  | > 100 µM |  |  |  | 2.5 µM |  | > 40.5 µM |  | > 100 µM |  | > 100 µM
